Measurements taken from US20250051409A1, “MODULATORS OF PHOSPHATIDYLSERlNE DECARBOXYLASE AND USE THEREOF” (THE NATIONAL INSTITUTE FOR BIOTECHNOLOGY IN THE NEGEV LTD., priority 2021, published 2025).
Square brackets hold non-standard residues; d marks the D form. Peptide text beside a SMILES is read from it. Dmt = Cc1cc(O)cc(C)c1C[C@H](N)C(=O)O; Orn = NCCC[C@H](N)C(=O)O

Test system: A549 lung cancer cell
Assay type: cell-based, human
Conditions: 24 h
Protocol: (B) Inhibition of PSD activity by the 2F3 (●) or 1C11 (◯) peptide. PSD activity was measured using the DSB-3 method. (C-E) Cell proliferation inhibition following incubation of A549 cells with the indicated mitochondria- or nuclear-targeted peptides for 24 h in a serum-free medium, and cell proliferation was assayed using the SRB method. Results are the means±SEM (n=3). (F) A549 cells were incubated for 90 min with 5 μM of the mitochondria- or nuclear targeted FITC-labelled peptides, immunostained with anti-SMAC antibodies and with DAPI and visualized by confocal microscope for subcellular localization. Arrows indicates nuclear (n=3). Scale bars represent 20
(A) A549 cells were incubated with the indicated concentration of 1C11-HTRA2-derived peptide targeted to the mitochondrion with the targeting sequence added to the N-terminus (N-Ter) or the C-terminus (C-Ter). (B) Mitochondrion targeted 1C11-HTRA2-derived peptide was modified by replacing the three amino acids in the C or the N-terminus of the peptide, or all amino acids in the peptide with the D-confirmation of the amino acid (underlined amino acids)). Following 24 h incubation in a serum-free medium, cell proliferation was assayed using the SRB method. (C) The concentration required for 50% inhibition of cell proliferation (IC50) is presented. Results are the means±SEM (n=3).
A549 (human lung adenocarcinoma epithelial cell), HEK-293T (human embryonic kidney), H1563/CRL-5875 (non-small cell lung cancer adenocarcinoma), H-358 (bronchioalveolar carcinoma), HaCaT (spontaneously transformed aneuploid immortal human skin keratinocyte), and WI-38 (fibroblast-like fetal lung cell) cell lines were purchased from the American Type Culture Collection (ATCC) (Manassas, VA), and were maintained as per ATCC instructions. Cells were maintained in ATCC recommended medium at 37° C. in an incubator with 5% CO2. Cell lines were routinely tested for Mycoplasma contamination. For SMAC overexpression, cells were seeded (200,000 cells/well) on 6-well culture plates and allowed to adhere overnight. These adhered cells were transfected with PVMV3.1-SMAC or empty vector using the JetPRIME transfection reagent (Illkirch, France), according to the manufacturers' instructions. Medium was changed 6 h post transfection, and cells were harvested 48 h post transfection.
Cells were seeded in 96-well cell culture plates (8,000/well) and allowed to grow for 48 h. After washing with PBS, cells were fixed with 10% trichloroacetic acid, and stained with SRB for 20 min. Excess SRB were removed, and cells were washed with 1% acetic acid. SRB extraction was done using 100 mM Tris-base, and absorbance at 510 nm was determined using an Infinite M1000 plate reader (Tecan, Mannedorf, Switzerland).

| Compound | IC50 [µM] |
| --- | --- |
| CC(C)C[C@H](NC(=O)[C@H](C)N)C(=O)N[C@@H](CC(C)C)C(=O)N[C@H](C(=O)N[C@@H](CO)C(=O)NCC(=O)N[C@H](C(=O)N[C@@H](CO)C(=O)N[C@@H](CC(=O)O)C(=O)N1CCC[C@H]1C(=O)N[C@@H](CCCNC(=N)N)C(=O)N[C@@H](C)C(=O)N[C@@H](CCCNC(=N)N)C(=O)N[C@H](C(=O)N[C@H](C(=O)N[C@@H](Cc1ccc(O)cc1)C(=O)NCC(=O)N[C@H](C(=O)N1CCC[C@H]1C(=O)N[C@@H](CO)C(=O)N[C@@H](CC(C)C)C(=O)N[C@@H](Cc1c[nH]c2ccccc12)C(=O)N[C@@H](C)C(=O)N[C@@H](CCCNC(=N)N)C(=O)N[C@@H](CC(C)C)C(=O)N[C@@H](CCCNC(=N)N)C(=O)N[C@H](CCCNC(=N)N)C(=O)N[C@@H](CCCNC(=N)N)C(=O)N[C@@H](CCCCN)C(=O)O)[C@@H](C)O)[C@@H](C)O)C(C)C)[C@@H](C)O)[C@@H](C)O [1C11-R-{D-Arg}-RK] (H-ALLTSGTSDPRARVTYGTPSLWARLR[dR]RK-OH; N-terminus and C-terminus assumed) | 30 ± 3.8 |
| CC[C@H](C)[C@H](NC(=O)[C@@H]1CCCN1C(=O)[C@H](CO)NC(=O)[C@H](CO)NC(=O)[C@@H](NC(=O)[C@H](CO)NC(=O)[C@H](CC(C)C)NC(=O)[C@H](C)N)[C@@H](C)O)C(=O)N1CCC[C@H]1C(=O)N[C@@H](CO)C(=O)N[C@H](C(=O)N1CCC[C@H]1C(=O)N[C@@H](CCC(N)=O)C(=O)N[C@@H](CO)C(=O)N[C@@H](CCC(N)=O)C(=O)N[C@@H](C)C(=O)N[C@@H](CCC(N)=O)C(=O)N1CCC[C@H]1C(=O)N[C@@H](CCC(N)=O)C(=O)N[C@H](C(=O)NCC(=O)N[C@@H](CO)C(=O)NCC(=O)N[C@@H](C)C(=O)N[C@@H](CO)C(=O)N[C@H](CCCNC(=N)N)C(=O)N[C@@H](Cc1c(C)cc(O)cc1C)C(=O)N[C@@H](CCCN)C(=O)N[C@@H](Cc1ccccc1)C(N)=O)[C@@H](C)O)C(C)C [2F3-D-Arg-Dmt-Orn-Phe] (H-ALSTSSPIPSVPQSQAQPQTGSGAS[dR][Dmt][Orn]F-NH2; N-terminus and C-terminus assumed) | 19.6 ± 0.4 |
| CC[C@H](C)[C@H](NC(=O)[C@@H]1CCCN1C(=O)[C@H](CO)NC(=O)[C@H](CO)NC(=O)[C@@H](NC(=O)[C@H](CO)NC(=O)[C@H](CC(C)C)NC(=O)[C@H](C)N)[C@@H](C)O)C(=O)N1CCC[C@H]1C(=O)N[C@@H](CO)C(=O)N[C@H](C(=O)N1CCC[C@H]1C(=O)N[C@@H](CCC(N)=O)C(=O)N[C@@H](CO)C(=O)N[C@@H](CCC(N)=O)C(=O)N[C@@H](C)C(=O)N[C@@H](CCC(N)=O)C(=O)N1CCC[C@H]1C(=O)N[C@@H](CCC(N)=O)C(=O)N[C@H](C(=O)NCC(=O)N[C@@H](CO)C(=O)NCC(=O)N[C@@H](C)C(=O)N[C@@H](CO)C(=O)N[C@@H](CCCNC(=N)N)C(=O)N[C@H](CCCNC(=N)N)C(=O)N[C@@H](CCCNC(=N)N)C(=O)N[C@@H](CCCCN)C(=O)O)[C@@H](C)O)C(C)C [2F3-R-{D-Arg}-RK] (H-ALSTSSPIPSVPQSQAQPQTGSGASR[dR]RK-OH; N-terminus and C-terminus assumed) | 29.6 ± 0.6 |
| Cc1cc(O)cc(C)c1C[C@H](NC(=O)[C@H](N)CCCNC(=N)N)C(=O)N[C@@H](CCCN)C(=O)N[C@@H](Cc1ccccc1)C(=O)N[C@@H](C)C(=O)N[C@@H](CC(C)C)C(=O)N[C@@H](CC(C)C)C(=O)N[C@H](C(=O)N[C@@H](CO)C(=O)NCC(=O)N[C@H](C(=O)N[C@@H](CO)C(=O)N[C@@H](CC(=O)O)C(=O)N1CCC[C@H]1C(=O)N[C@@H](CCCNC(=N)N)C(=O)N[C@@H](C)C(=O)N[C@@H](CCCNC(=N)N)C(=O)N[C@H](C(=O)N[C@H](C(=O)N[C@@H](Cc1ccc(O)cc1)C(=O)NCC(=O)N[C@H](C(=O)N1CCC[C@H]1C(=O)N[C@@H](CO)C(=O)N[C@@H](CC(C)C)C(=O)N[C@@H](Cc1c[nH]c2ccccc12)C(=O)N[C@@H](C)C(=O)N[C@@H](CCCNC(=N)N)C(=O)N[C@@H](CC(C)C)C(=O)O)[C@@H](C)O)[C@@H](C)O)C(C)C)[C@@H](C)O)[C@@H](C)O [D-Arg-Dmt-Orn-Phe-1C11] (H-[dR][Dmt][Orn]FALLTSGTSDPRARVTYGTPSLWARL-OH; N-terminus and C-terminus assumed) | 89.3 ± 5.49 |

The remaining lines, values ahead:

| IC50 [µM] | Compound |
| --- | --- |
| 30.3 ± 5.5 | Cc1cc(O)cc(C)c1C[C@H](NC(=O)[C@@H](CCCNC(=N)N)NC(=O)[C@H](CC(C)C)NC(=O)[C@H](CCCNC(=N)N)NC(=O)[C@H](C)NC(=O)[C@H](Cc1c[nH]c2ccccc12)NC(=O)[C@H](CC(C)C)NC(=O)[C@H](CO)NC(=O)[C@@H]1CCCN1C(=O)[C@@H](NC(=O)CNC(=O)[C@H](Cc1ccc(O)cc1)NC(=O)[C@@H](NC(=O)[C@@H](NC(=O)[C@H](CCCNC(=N)N)NC(=O)[C@H](C)NC(=O)[C@H](CCCNC(=N)N)NC(=O)[C@@H]1CCCN1C(=O)[C@H](CC(=O)O)NC(=O)[C@H](CO)NC(=O)[C@@H](NC(=O)CNC(=O)[C@H](CO)NC(=O)[C@@H](NC(=O)[C@H](CC(C)C)NC(=O)[C@H](CC(C)C)NC(=O)[C@H](C)N)[C@@H](C)O)[C@@H](C)O)C(C)C)[C@@H](C)O)[C@@H](C)O)C(=O)N[C@@H](CCCN)C(=O)N[C@@H](Cc1ccccc1)C(N)=O [1C11-D-Arg-Dmt-Orn-Phe] (H-ALLTSGTSDPRARVTYGTPSLWARL[dR][Dmt][Orn]F-NH2; N-terminus and C-terminus assumed) |
| > 100 | CC[C@H](C)[C@H](NC(=O)[C@@H](NC(=O)[C@H](CC(N)=O)NC(=O)[C@H](C)NC(=O)[C@H](CCCCN)NC(=O)[C@H](CC(C)C)NC(=O)[C@H](CC(C)C)NC(=O)[C@H](CC(N)=O)NC(=O)[C@H](CC(=O)O)NC(=O)[C@H](CC(C)C)NC(=O)[C@@H](NC(=O)[C@@H]1CCCN1C(=O)[C@H](CC(C)C)NC(=O)[C@@H](NC(=O)[C@H](CS)NC(=O)[C@@H](NC(=O)[C@H](CC(C)C)NC(=O)[C@H](CCC(N)=O)NC(=O)[C@H](CCC(N)=O)NC(=O)[C@@H](N)Cc1ccccc1)[C@@H](C)O)C(C)C)[C@@H](C)CC)C(C)C)C(=O)N[C@@H](CC(N)=O)C(=O)N[C@@H](CCCCN)C(=O)N[C@@H](CCC(N)=O)C(=O)N[C@@H](CCC(=O)O)C(=O)N[C@@H](Cc1c[nH]cn1)C(=O)N[C@H](CCCNC(=N)N)C(=O)N[C@@H](Cc1c(C)cc(O)cc1C)C(=O)N[C@@H](CCCN)C(=O)N[C@@H](Cc1ccccc1)C(N)=O [1E14-D-Arg-Dmt-Orn-Phe] (H-FQQLTCVLPILDNLLKANVINKQEH[dR][Dmt][Orn]F-NH2; N-terminus and C-terminus assumed) |
| 30.2 ± 3.6 | Cc1cc(O)cc(C)c1C[C@H](NC(=O)[C@@H](CCCNC(=N)N)NC(=O)[C@H](CCC(N)=O)NC(=O)[C@H](CCC(N)=O)NC(=O)[C@H](CO)NC(=O)[C@H](CC(C)C)NC(=O)[C@H](Cc1ccccc1)NC(=O)[C@H](CC(=O)O)NC(=O)[C@H](Cc1ccccc1)NC(=O)[C@H](C)NC(=O)[C@H](CC(C)C)NC(=O)[C@H](CC(=O)O)NC(=O)[C@H](CO)NC(=O)[C@H](CO)NC(=O)[C@H](Cc1c[nH]cn1)NC(=O)[C@H](CC(=O)O)NC(=O)[C@@H](NC(=O)CNC(=O)[C@H](CCC(N)=O)NC(=O)[C@H](Cc1ccccc1)NC(=O)[C@H](C)NC(=O)[C@H](CCCNC(=N)N)NC(=O)[C@H](CO)NC(=O)[C@H](CO)NC(=O)[C@H](CCC(N)=O)NC(=O)[C@H](CC(N)=O)NC(=O)[C@@H]1CCCN1)[C@@H](C)O)C(=O)N[C@@H](CCCN)C(=O)N[C@@H](Cc1ccccc1)C(N)=O [2I8-(D-Arg)-Dmt-Orn-Phe-NH2] (H-PNQSSRAFQGTDHSSDLAFDFLSQQ[dR][Dmt][Orn]F-NH2; N-terminus assumed) |
| 19.7 ± 4.3 | CC(C)C[C@H](NC(=O)[C@H](CC(=O)O)NC(=O)[C@H](CO)NC(=O)[C@H](CO)NC(=O)[C@H](Cc1c[nH]cn1)NC(=O)[C@H](CC(=O)O)NC(=O)[C@@H](NC(=O)CNC(=O)[C@H](CCC(N)=O)NC(=O)[C@H](Cc1ccccc1)NC(=O)[C@H](C)NC(=O)[C@H](CCCNC(=N)N)NC(=O)[C@H](CO)NC(=O)[C@H](CO)NC(=O)[C@H](CCC(N)=O)NC(=O)[C@H](CC(N)=O)NC(=O)[C@@H]1CCCN1)[C@@H](C)O)C(=O)N[C@@H](C)C(=O)N[C@@H](Cc1ccccc1)C(=O)N[C@@H](CC(=O)O)C(=O)N[C@@H](Cc1ccccc1)C(=O)N[C@@H](CC(C)C)C(=O)N[C@@H](CO)C(=O)N[C@@H](CCC(N)=O)C(=O)N[C@@H](CCC(N)=O)C(=O)N[C@@H](CCCNC(=N)N)C(=O)N[C@H](CCCNC(=N)N)C(=O)N[C@@H](CCCNC(=N)N)C(=O)N[C@@H](CCCCN)C(=O)O [2I8-R-{D-Arg}-RK] (H-PNQSSRAFQGTDHSSDLAFDFLSQQR[dR]RK-OH; N-terminus and C-terminus assumed) |
